These are literature values, as cited in patent publication US7700612B2, “Di-ester prodrugs of camptothecin, process for their preparation and their therapeutical applications” (Abraxis BioScience, LLC, priority 2003, dated 2010).

For data set [1] the following is noted: animal models; J. Med. Chem. 23, 554 (1980).
Data set [2] has as its system mouse leukemia L 1210. As to conditions: initial test, Wall et al.

With `CC[C@@](O)(C(=O)[O-])c1cc2n(c(=O)c1CO)Cc1cc3ccccc3nc1-2.[Na+]` [CPT sodium carboxylate], the solubility in water result is listed as “water-soluble”. Moreover, in data set [1], the “potency relative to the parent camptothecin” value was 10-20%.
With `CC[C@@]1(O)C(=O)OCc2c1cc1n(c2=O)Cc2cc3ccccc3nc2-1` [Camptothecin], the solubility in water result was “insoluble”. Moreover, in data set [2], the “activity against mouse leukemia L 1210 system” value is recorded as “active”.
